# Values quoted from earlier work, collected in patent US20100105750A1, “STABLE METRONIDAZOLE GEL FORMULATIONS” (NYCOMED US INC., priority 2008, published 2010).
smiles,measurement,value
OCc1ccccc1 [benzyl alcohol],water soluble,4 g/100 mL
